This is an account of results in patent US9533953B2, “Method of preparation of crystal forms of 4-(cyclopropylmethoxy)-n-(3,5-dichloro-1-oxidopyridyn-4-yl)-5-methoxypyridine-2-carboxamide and crystal forms thereof” (SANOFI, priority 2012, dated 2017).

Format in all cases: physicochemical
The nature of data set [1]: Physical stability of the crystal form on heating, humidity and storage (XRPD). Particulars: for desolvation behaviour: slight heating / upon heating; for temperature of transformation into another crystal form: A into B, D into E, E into B, G desolvates into D. The protocol: High-resolution diagrams are recorded at ambient conditions on a PANalytical X'Pert Pro MPD powder diffractometer using the Bragg-Brentano (vertical 0-20 configuration) parafocusing geometry coupled with a X'Celerator detector. A sealed copper anode X-ray tube is used, running at 45 kV and 40 mA levels. An incident beam monochromator (Johansson type: a symmetrically cut curved germanium (111) crystal) produces pure Cu Kα1 radiation (λ[…]=1.54060 Å). A thin layer of the product is deposited on a single-crystal silicon wafer, cut out according to Si (510) crystallographic orientation that, by systematic extinction, impedes any Bragg reflection. In order to bring more crystallites into the diffraction position and thus reduce the influence of particle statistics on the measurements, a sample spinner is used. The spinner rotation speed is set at 1 revolution per second. The angular range extends from 2 to 50° in 2θ, with a 0.02° step size in 2θ. A variable counting time from 100 to 2500 seconds per step was used.
XRPD analyses are carried out on a Siemens-Bruker D5000 Matic powder diffractometer using the Bragg-Brentano (vertical θ-2θ configuration) parafocusing geometry. A thin layer of the product is deposited on a single-crystalline silicon wafer, cut out according to Si(510) crystallographic orientation that, by systematic extinction, impedes any Bragg reflection. A sealed cobalt anode X-ray tube running at 40 kV and 30 mA levels is used. Two lines are typically emitted: CoKα1 (λ=1.7890 Å) and CoKα2 (λ=1.7929 Å). […] The primary beam passes through a parallel plate collimator (0.2 mm Soller slits), then through a divergence slit (0.2 mm). A Braun 50 M multicanal linear detector completes the setup. It has a 10°-wide detection window in angle 2θ.

Data set [2] in a line: Water-Activity Isotherm (DVS), water sorption/desorption at 25° C. On the procedure: All experiments are performed on a DVS-1 automated gravimetric vapor sorption analyser (Surface Measurement Systems Ltd., London, UK). The DVS-1 measures the uptake and loss of vapor gravimetrically using a Cahn D200 recording ultra-microbalance with a mass resolution of ±0.1 μg. A controlled relative humidity is generated by mixing different proportions of dry and water saturated carrier gas streams (monitored by mass flow controllers). The temperature is maintained constant, ±0.1° C., by enclosing the entire system in a temperature-controlled incubator. A sample size between 4 and 10 mg is used. Prior to being exposed to any water vapor the samples are dried at 0% RH to remove any surface water present and establish a dry, baseline mass. Next, the samples are exposed to an increasing relative humidity raised by a step of 5% RH from 0% to 90% RH.

Data set [3] is described as follows: Behaviour under mechanical strain (mortar grinding, jet-milling). Particulars: for effect of jet-milling on the crystalline form: DSC / XRPD. The protocol: Crystal Form A is of particular interest because of its behaviour under mechanical strain. The effect of 30 seconds of mortar grinding was evaluated. […] The behaviour of amorphous phase present in ground form A was also studied. No recrystallization of the amorphous phase was detected through sorption/desorption of water at 25° C. Nevertheless, maturation of ground samples in pure water for 6 days at room temperature led to partial recrystallization of the amorphous phase into form A.
A particle size close to 5 μm could be reached. The DSC analyses indicate that there is no modification of the crystalline structure before and after jet-milling of Form A.
A particle size close to 5 μm could be reached.

A short description of data set [4]: Thermo-Gravimetric Analysis (TGA). On the procedure:
Analyses are carried out on a T.A. instruments TGAQ500 analyzer. Mass calibration is performed with 10 and 100 mg certified masses and the instrument is temperature-calibrated with alumel and nickel standards (Curie points of respectively 154° C. and 354° C.). Samples are exposed to a constant nitrogen stream of 60 mL/min and temperature ranges from 20° C. to 250° C. at a 5° C./min rate. The quantity of product lies between 2 and 5 mg. The powder is deposited in an open aluminum sample pan, which is itself placed in a platinum pan.

On to `COc1cnc(C(=O)Nc2c(Cl)c[n+]([O-])cc2Cl)cc1OCC1CC1` [Crystal Form H, 4-(cyclopropylmethoxy)-N-(3,5-dichloro-1-oxidopyridin-4-yl)-5-methoxypyridine-2-carboxamide], for which the desolvation behaviour entry in data set [1] is “desolvates easily into Crystal Form D”.

`COc1cnc(C(=O)Nc2c(Cl)c[n+]([O-])cc2Cl)cc1OCC1CC1` [Crystal Form C, 4-(cyclopropylmethoxy)-N-(3,5-dichloro-1-oxidopyridin-4-yl)-5-methoxypyridine-2-carboxamide]: the behaviour on storage entry in data set [1] (15 months of storage in ambient conditions) is “transformed into Crystal Form D and amorphous phase”.

For the molecule `COc1cnc(C(=O)Nc2c(Cl)c[n+]([O-])cc2Cl)cc1OCC1CC1` [Crystal Form A, 4-(cyclopropylmethoxy)-N-(3,5-dichloro-1-oxidopyridin-4-yl)-5-methoxypyridine-2-carboxamide], the hygroscopicity result in data set [2] (25° C. isotherm) is “not hygroscopic”. Moreover, in data set [2] (25° C., up to 90% of relative humidity (RH)), the water uptake result was “no significant water uptake”. Further, in data set [3] (30 seconds of mortar grinding), the “amorphous phase after grinding (XRPD)” value is reported as “appearance of amorphous phase was detected” and the “polymorphic transition after grinding (XRPD)” value is reported as “no observed polymorphic transition”. For the same molecule, in data set [3], the “particle size reached by jet-milling” value was ~5 μm and the “effect of jet-milling on the crystalline form” value is given as “without any impact on the crystalline form”. Besides, in data set [4], the “temperature beyond which thermal decomposition is observed” value was > 190 °C. For the same molecule, the TGA weight loss entry in data set [4] (from room temperature up to 190° C.) is listed as “no weight loss”. Further, the “temperature of transformation into another crystal form” value in data set [1] (upon heating) was “above 100 °C”.

With `COc1cnc(C(=O)Nc2c(Cl)c[n+]([O-])cc2Cl)cc1OCC1CC1` [Crystal Form D, 4-(cyclopropylmethoxy)-N-(3,5-dichloro-1-oxidopyridin-4-yl)-5-methoxypyridine-2-carboxamide], in data set [2] (25° C., at 90% RH), the total water gain is reported as 8.7% and the “total water gain expressed as moles of water” value is 2 moles of water. The “loss of water, last desorption step” value in data set [2] (25° C., between 70% and 0% RH, without hysteresis) amounted to 1.3%. Besides, the “water desorption, second desorption step” value in data set [2] (25° C., between 75% and 70% RH) is recorded as 6.4%. In data set [2] (25° C., between 85% and 90% RH), the “water uptake, second sorption step” value is 6.9%. In data set [3], the “particle size reached by jet-milling” value was ~5 μm and the “effect of jet-milling on the crystalline form” value is reported as “without any impact on the crystalline form”. Also, the “temperature beyond which thermal decomposition is observed” value in data set [4] was > 205 °C. The TGA weight loss in data set [4] (between 20 and 100° C.) was 0.2%. Also, the TGA weight loss entry in data set [4] (between 100 and 205° C.) is “no weight loss”. In data set [1] (upon heating), the “temperature range in which the form is stable / physically unaltered” value was “up to 110 °C” and the “temperature of transformation into another crystal form” value is 110 °C.

As for `COc1cnc(C(=O)Nc2c(Cl)c[n+]([O-])cc2Cl)cc1OCC1CC1` [Crystal Form B, 4-(cyclopropylmethoxy)-N-(3,5-dichloro-1-oxidopyridin-4-yl)-5-methoxypyridine-2-carboxamide], the “temperature beyond which thermal decomposition is observed” value in data set [4] was > 190 °C.

Consider `COc1cnc(C(=O)Nc2c(Cl)c[n+]([O-])cc2Cl)cc1OCC1CC1` [Crystal Form E, 4-(cyclopropylmethoxy)-N-(3,5-dichloro-1-oxidopyridin-4-yl)-5-methoxypyridine-2-carboxamide], for which the TGA weight loss in data set [4] (between 100 and 170° C.) was 0.8%; in data set [4] (from room temperature to 100° C.) it was “no weight loss”. For the same molecule, the “stability under room conditions” value in data set [1] (room conditions) is recorded as “stable under room conditions”. Moreover, the “temperature of transformation into another crystal form” value in data set [1] (upon heating) came to 140 °C.

Consider `COc1cnc(C(=O)Nc2c(Cl)c[n+]([O-])cc2Cl)cc1OCC1CC1` [Crystal Form G, 4-(cyclopropylmethoxy)-N-(3,5-dichloro-1-oxidopyridin-4-yl)-5-methoxypyridine-2-carboxamide], for which the “temperature of transformation into another crystal form” value in data set [1] (upon heating) came to 70 °C.

`COc1cnc(C(=O)Nc2c(Cl)c[n+]([O-])cc2Cl)cc1OCC1CC1` [Crystal Form I, 4-(cyclopropylmethoxy)-N-(3,5-dichloro-1-oxidopyridin-4-yl)-5-methoxypyridine-2-carboxamide]: in data set [1], the desolvation behaviour result was “desolvates easily into form D”.
